Data taken from ChEMBL document CHEMBL5385867, “2-Phenoxy-3, 4'-bipyridine derivatives inhibit AURKB-dependent mitotic processes by disrupting its localization” (Eur J Med Chem, 2023).
Each block holds one compound with its values, some of them ahead of it. Active and inactive are the calls of the source. The rule behind the calls is not given here.

What was measured:
[1] = target: Aurora kinase B (Homo sapiens) (UniProt Q96GD4); test: Disruption of AURKB localization in human RPE-MYC transfected with GFP-H2B assessed as minimal effective concentration that induces mitotic arrest, polyploidy, cell death and cell number reduction by MIPS assay; format: cell-based
Chain of Aurora kinase B (Homo sapiens) (Q96GD4 whole entry, the tested form may be a part): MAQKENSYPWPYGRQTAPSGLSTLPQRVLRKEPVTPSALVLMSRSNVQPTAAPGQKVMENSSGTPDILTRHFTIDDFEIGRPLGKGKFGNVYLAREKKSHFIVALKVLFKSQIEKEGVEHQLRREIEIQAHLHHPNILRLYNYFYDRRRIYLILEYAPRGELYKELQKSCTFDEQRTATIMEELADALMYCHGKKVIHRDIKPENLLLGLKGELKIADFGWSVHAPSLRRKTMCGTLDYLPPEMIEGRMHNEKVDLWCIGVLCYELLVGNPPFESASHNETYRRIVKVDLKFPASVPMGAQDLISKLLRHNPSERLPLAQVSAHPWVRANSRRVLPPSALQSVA

[2] = target: Aurora kinase B (Homo sapiens) (UniProt Q96GD4); test: Disruption of AURKB localization in human RPE-MYC cells transfected with BCL2 assessed as loss of localization of PLK1 at the spindle-midzone by immunofluorescence staining based analysis; format: cell-based
[3] = target: Aurora kinase B (Homo sapiens) (UniProt Q96GD4); test: Inhibition of Aurora kinase B in human RPE-MYC cells transfected with BCL2 assessed as inhibition of histone H3 phosphorylation at Ser10 residue at MEC for polyploidy measured after 6 hrs by immunofluorescence staining based analysis; format: cell-based
[4] = target: Aurora kinase B (Homo sapiens) (UniProt Q96GD4); test: Disruption of AURKB localization in human RPE-MYC cells transfected with BCL2 assessed as mislocalization of AURKB at the spindle zone in anaphase cells by immunofluorescence staining based analysis; format: cell-based
[5] = target: Epithelial discoidin domain-containing receptor 1 (Homo sapiens) (UniProt Q08345); test: Inhibition of DDR1 (unknown origin)
Chain of Epithelial discoidin domain-containing receptor 1 (Homo sapiens) (Q08345 whole entry, the tested form may be a part): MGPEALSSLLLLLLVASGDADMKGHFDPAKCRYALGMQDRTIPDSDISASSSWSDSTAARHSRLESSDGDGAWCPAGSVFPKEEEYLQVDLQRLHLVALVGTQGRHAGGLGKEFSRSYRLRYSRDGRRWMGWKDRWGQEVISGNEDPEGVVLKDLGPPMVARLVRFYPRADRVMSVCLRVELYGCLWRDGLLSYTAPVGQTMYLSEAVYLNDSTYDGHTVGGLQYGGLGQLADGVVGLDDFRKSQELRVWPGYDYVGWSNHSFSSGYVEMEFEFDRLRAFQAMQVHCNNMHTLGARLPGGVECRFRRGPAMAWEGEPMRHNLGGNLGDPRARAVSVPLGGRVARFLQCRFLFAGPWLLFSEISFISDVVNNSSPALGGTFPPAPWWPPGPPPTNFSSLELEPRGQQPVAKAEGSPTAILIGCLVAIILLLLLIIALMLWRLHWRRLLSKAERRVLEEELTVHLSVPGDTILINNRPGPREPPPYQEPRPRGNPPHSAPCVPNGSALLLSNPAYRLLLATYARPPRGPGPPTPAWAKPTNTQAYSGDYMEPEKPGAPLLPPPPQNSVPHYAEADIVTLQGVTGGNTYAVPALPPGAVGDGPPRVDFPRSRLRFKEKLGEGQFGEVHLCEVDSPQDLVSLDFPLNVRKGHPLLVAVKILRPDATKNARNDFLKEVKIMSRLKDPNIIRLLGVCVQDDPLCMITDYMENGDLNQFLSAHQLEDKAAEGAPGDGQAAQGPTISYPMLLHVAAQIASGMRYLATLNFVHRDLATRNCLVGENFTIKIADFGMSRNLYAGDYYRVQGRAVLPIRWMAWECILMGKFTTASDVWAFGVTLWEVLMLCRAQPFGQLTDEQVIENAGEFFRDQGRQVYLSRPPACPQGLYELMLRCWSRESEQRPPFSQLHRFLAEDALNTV

[6] = target: Aurora kinase B (Homo sapiens) (UniProt Q96GD4); test: Disruption of AURKB localization in human RPE-MYC cells transfected with BCL2 assessed as loss of localization of MKLP1 at the spindle-midzone by immunofluorescence staining based analysis; format: cell-based
[7] = target: Aurora kinase B (Homo sapiens) (UniProt Q96GD4); test: Disruption of AURKB localization in human RPE-MYC cells transfected with BCL2 assessed as loss of localization of microtubules at the spindle-midzone by immunofluorescence staining based analysis; format: cell-based
[8] = target: T1, Aurora kinase A (Homo sapiens) (UniProt O14965); test: Inhibition of Aurora kinase A in human RPE-MYC cells transfected with BCL2 assessed as inhibition of protein autophosphorylation at Thr288 residue by immunofluorescence staining based analysis; format: cell-based
T1 sequence (whole entry): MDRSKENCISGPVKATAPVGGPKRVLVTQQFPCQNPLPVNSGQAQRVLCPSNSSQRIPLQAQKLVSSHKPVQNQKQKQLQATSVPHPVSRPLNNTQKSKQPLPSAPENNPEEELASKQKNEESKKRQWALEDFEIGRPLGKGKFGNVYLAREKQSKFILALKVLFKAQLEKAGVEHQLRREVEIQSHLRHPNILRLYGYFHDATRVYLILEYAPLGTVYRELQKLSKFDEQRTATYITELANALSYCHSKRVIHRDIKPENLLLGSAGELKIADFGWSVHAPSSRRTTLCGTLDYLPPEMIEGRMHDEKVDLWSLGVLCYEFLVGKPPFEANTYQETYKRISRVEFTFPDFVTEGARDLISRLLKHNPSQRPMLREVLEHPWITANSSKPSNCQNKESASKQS

[9] = target: Aurora kinase B (Homo sapiens) (UniProt Q96GD4); test: Inhibition of Aurora kinase B in human RPE-MYC cells transfected with BCL2 assessed as inhibition of histone H3 phosphorylation at Ser10 residue by immunofluorescence staining based analysis; format: cell-based
[10] = Dose normalized AUC (0 to 6 hrs) in BALB/c mouse at 50 mg/kg, po compound formulated in PEG300 and administered as single dose by LC-MS/MS analysis; format: ADME, organism-based; settings: in vivo
[11] = target: Aurora kinase B (Homo sapiens) (UniProt Q96GD4); test: Disruption of AURKB localization in human RPE-MYC cells transfected with BCL2 assessed as localization of AURKB on kinetochore at 40 nM measured after 6 hrs by immunofluorescence staining based analysis; format: cell-based
[12] = test system: NCI-H23; test: Antitumor activity against human NCI-H23 cells xenografted in BALB/c mouse assessed as reduction in cellular density in tumor at 50 mg/kg, po bid for 7 days by Hematoxylin and Eosin staining based analysis; format: functional, organism-based; settings: time 7.0 day
[13] = target: Aurora kinase B (Homo sapiens) (UniProt Q96GD4); test: Disruption of AURKB localization in human RPE-MYC cells transfected with BCL2 assessed as loss of localization of PLK1 at the spindle-midzone at 40 nM measured after 6 hrs by immunofluorescence staining based analysis; format: cell-based
[14] = target: Aurora kinase B (Homo sapiens) (UniProt Q96GD4); test: Disruption of AURKB localization in human RPE-MYC cells transfected with BCL2 assessed as loss of localization of MKLP1 at the spindle-midzone at 40 nM measured after 6 hrs by immunofluorescence staining based analysis; format: cell-based
[15] = test system: Phosphatidylinositol 4,5-bisphosphate 3-kinase catalytic subunit alpha isoform (Homo sapiens), P42336 [E545K]; test: Inhibition of PI3KCA E545K mutant (unknown origin)
Chain of Phosphatidylinositol 4,5-bisphosphate 3-kinase catalytic subunit alpha isoform (Homo sapiens), P42336 [E545K] (P42336 whole entry E545K, canonical isoform): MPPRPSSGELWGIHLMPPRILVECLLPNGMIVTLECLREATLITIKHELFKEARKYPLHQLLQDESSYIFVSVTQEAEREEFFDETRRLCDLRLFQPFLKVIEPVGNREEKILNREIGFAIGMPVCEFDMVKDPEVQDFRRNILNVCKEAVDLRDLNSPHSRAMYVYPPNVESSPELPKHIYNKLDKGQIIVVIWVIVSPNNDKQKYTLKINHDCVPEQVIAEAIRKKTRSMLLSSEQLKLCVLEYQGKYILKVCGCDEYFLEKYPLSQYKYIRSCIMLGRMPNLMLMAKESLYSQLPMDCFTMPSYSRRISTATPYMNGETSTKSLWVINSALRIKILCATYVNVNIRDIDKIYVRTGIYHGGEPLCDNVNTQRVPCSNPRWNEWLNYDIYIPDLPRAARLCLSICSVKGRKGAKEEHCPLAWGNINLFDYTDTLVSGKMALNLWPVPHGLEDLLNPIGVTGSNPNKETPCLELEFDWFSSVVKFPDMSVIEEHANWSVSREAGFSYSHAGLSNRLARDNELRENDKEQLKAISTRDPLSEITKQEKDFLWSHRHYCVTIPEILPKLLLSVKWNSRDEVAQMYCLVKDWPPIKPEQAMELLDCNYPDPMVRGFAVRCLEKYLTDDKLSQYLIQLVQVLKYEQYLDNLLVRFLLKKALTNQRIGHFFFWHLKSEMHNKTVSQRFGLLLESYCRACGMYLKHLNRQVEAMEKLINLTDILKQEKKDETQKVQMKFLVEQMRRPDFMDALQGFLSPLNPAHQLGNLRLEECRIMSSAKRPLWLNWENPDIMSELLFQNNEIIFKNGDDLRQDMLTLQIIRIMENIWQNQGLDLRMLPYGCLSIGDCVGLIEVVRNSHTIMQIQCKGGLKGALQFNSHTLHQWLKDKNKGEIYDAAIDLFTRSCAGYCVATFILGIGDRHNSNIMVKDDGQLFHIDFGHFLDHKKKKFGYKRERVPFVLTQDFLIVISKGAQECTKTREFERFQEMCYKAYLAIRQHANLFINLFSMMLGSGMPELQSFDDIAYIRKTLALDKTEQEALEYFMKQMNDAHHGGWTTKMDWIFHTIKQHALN

[16] = target: Aurora kinase B (Homo sapiens) (UniProt Q96GD4); test: Inhibition of Aurora kinase B in human RPE-MYC cells transfected with BCL2 assessed as inhibition of histone H3 phosphorylation at Ser10 residue at highest concentration measured after 6 hrs by immunofluorescence staining based analysis; format: cell-based
[17] = test system: Mus musculus; test: Induction of apoptosis in BALB/c mouse xenografted with human NCI-H23 cells assessed as increase in caspase-3 activation in tumor at 50 mg/kg, po bid for 7 days by immunohistochemical staining based analysis; format: functional, organism-based; settings: time 7.0 day
[18] = test system: NCI-H23; test: Antitumor activity against human NCI-H23 cells xenografted in BALB/c mouse assessed as suppression of tumor growth at 50 mg/kg, po bid for 7 days; format: functional, organism-based; settings: time 7.0 day
[19] = target: Aurora kinase B (Homo sapiens) (UniProt Q96GD4); test: Inhibition of Aurora kinase B in human RPE-MYC cells transfected with BCL2 assessed as inhibition of histone H3 phosphorylation at Ser10 residue at 40 nM measured after 6 hrs by immunofluorescence staining based analysis; format: cell-based
[20] = target: Aurora kinase B (Homo sapiens) (UniProt Q96GD4); test: Disruption of AURKB localization in human RPE-MYC cells transfected with BCL2 assessed as loss of localization of microtubules at the spindle-midzone at 40 nM measured after 6 hrs by immunofluorescence staining based analysis; format: cell-based
[21] = target: Aurora kinase B (Homo sapiens) (UniProt Q96GD4); test: Disruption of AURKB localization in human RPE-MYC cells transfected with BCL2 assessed as localization of PLK1 at mitotic centrosomes at 40 nM measured after 6 hrs by immunofluorescence staining based analysis; format: cell-based
[22] = target: T1, Aurora kinase A (Homo sapiens); test: Inhibition of Aurora kinase A (unknown origin)
[23] = test system: Mus musculus; test: Induction of mitotic arrest in BALB/c mouse xenografted with human NCI-H23 cells assessed as increase in mitotic index in tumor at 50 mg/kg, po bid for 7 days by immunohistochemical staining based analysis; format: functional, organism-based; settings: time 7.0 day
[24] = target: Aurora kinase B (Homo sapiens) (UniProt Q96GD4); test: Disruption of AURKB localization in human RPE-MYC cells transfected with BCL2 assessed as localization of PLK1 at spindle poles at 40 nM measured after 6 hrs by immunofluorescence staining based analysis; format: cell-based
[25] = target: Aurora kinase B (Homo sapiens) (UniProt Q96GD4); test: Inhibition of Aurora kinase B (unknown origin)
[26] = target: Aurora kinase B (Homo sapiens) (UniProt Q96GD4); test: Disruption of AURKB localization in human RPE-MYC cells transfected with BCL2 assessed as mislocalization of AURKB at the spindle zone in anaphase cells at 40 nM measured after 6 hrs by immunofluorescence staining based analysis; format: cell-based
[27] = Cmax in BALB/c mouse at 50 mg/kg, po compound formulated in PEG300 and administered as single dose by LC-MS/MS analysis; format: ADME, organism-based; design: dose 50 mg/kg, route po; settings: in vivo
[28] = target: Aurora kinase B (Homo sapiens) (UniProt Q96GD4); test: Disruption of AURKB localization during anaphase in human NCI-H23 cells at 2.5 nM measured after 24 hrs by immunofluorescence staining based analysis; format: cell-based
[29] = target: T1, Aurora kinase A (Homo sapiens); test: Inhibition of Aurora kinase A in human RPE-MYC cells transfected with BCL2 assessed as inhibition of protein autophosphorylation at Thr288 residue at 160 nM measured after 6 hrs by immunofluorescence staining based analysis; format: cell-based
[30] = target: Aurora kinase B (Homo sapiens) (UniProt Q96GD4); test: Inhibition of Aurora kinase B in human NCI-H23 cells transfected with BCL2 assessed as inhibition of histone H3 phosphorylation at Ser10 residue at 2.5 nM measured after 6 hrs by immunofluorescence staining based analysis; format: cell-based
[31] = target: Aurora kinase B (Homo sapiens) (UniProt Q96GD4); test: Disruption of AURKB localization in human RPE-MYC cells transfected with BCL2 assessed as misaligned chromosomes in metaphase-like cells at 2.5 nM measured after 24 hrs by immunofluorescence staining based analysis; format: cell-based
[32] = target: T1, Aurora kinase A (Homo sapiens); test: Inhibition of Aurora kinase A in human RPE-MYC cells transfected with BCL2 assessed as inhibition of protein autophosphorylation at Thr288 residue at 2.5 nM measured after 6 hrs by immunofluorescence staining based analysis; format: cell-based
[33] = target: Aurora kinase B (Homo sapiens) (UniProt Q96GD4); test: Inhibition of Aurora kinase B in human RPE-MYC cells transfected with BCL2 assessed as inhibition of histone H3 phosphorylation at Ser10 residue at 2.5 nM measured after 6 hrs by immunofluorescence staining based analysis; format: cell-based
[34] = Induction of mitotic arrest in human RPE-MYC cells transfected with BCL2 assessed as mitotic index at 2.5 nM measured after 24 hrs by DAPI staining based bright field microscopic analysis (reference value: 3.5%); format: functional
[35] = target: Aurora kinase B (Homo sapiens) (UniProt Q96GD4); test: Disruption of AURKB localization in human RPE-MYC cells transfected with BCL2 assessed as lagging chromosomes in anaphase cells at 2.5 nM measured after 24 hrs by immunofluorescence staining based analysis; format: cell-based
[36] = target: Aurora kinase B (Homo sapiens) (UniProt Q96GD4); test: Disruption of AURKB localization in human RPE-MYC cells transfected with BCL2 assessed as accumulation of polyploid cells with multilobular nuclei at 2.5 nM measured after 48 hrs by immunofluorescence staining based analysis; format: cell-based
[37] = target: Aurora kinase B (Homo sapiens) (UniProt Q96GD4); test: Inhibition of Aurora kinase B in human RPE-MYC cells transfected with BCL2 assessed as inhibition of histone H3 phosphorylation at Ser10 residue at >5 nM measured after 6 hrs by immunofluorescence staining based analysis; format: cell-based
[38] = target: T1, Aurora kinase A (Homo sapiens); test: Inhibition of Aurora kinase A in human NCI-H23 cells transfected with BCL2 assessed as inhibition of protein autophosphorylation at Thr288 residue at 2.5 nM measured after 6 hrs by immunofluorescence staining based analysis; format: cell-based

SMILES: COC(=O)c1cccc(Oc2ncccc2-c2ccnc(N)n2)c1
MEC [1]: 0.85 µM

Activity [2]: Active
inhibition [3]: inactive
Activity [4]: Active
inhibition [5]: Active
Activity [6]: Active
Activity [7]: Active
SMILES: COc1cc(NC(C)=O)cc(Oc2ncccc2-c2ccncc2)c1
MEC [1]: 0.11 µM

inhibition [8]: inactive
inhibition [9]: inactive
SMILES: COc1cc(OC)cc(Oc2ncccc2-c2ccnc(OC)c2)c1
MEC [1]: 0.07 µM

AUC/dose [10]: 0.35 µM·h/mg/kg
Activity [11]: inactive
Activity [13]: Active
inhibition [3]: Active
Activity [14]: Active
inhibition [15]: Active
inhibition [16]: < 68%
inhibition [19]: Active
Activity [20]: Active
Activity [21]: inactive
inhibition [22]: inactive
Activity [24]: inactive
inhibition [25]: inactive
Activity [26]: Active
Cmax [27]: 6.9 µM
SMILES: CNC(=O)c1cc(Oc2ncccc2-c2ccnc(OC)c2)cc(OC(F)(F)F)c1
Activity [12]: Active
Activity [17]: Active
Activity [18]: Active
MEC [1]: 0.02 µM
Activity [23]: Active

SMILES: COc1cc(OC)cc(Oc2ncccc2-c2ccnc(N)c2)c1
MEC [1]: 0.28 µM

SMILES: COc1cc(OC)cc(Oc2ncccc2-c2ccnc(C)n2)c1
MEC [1]: 1.29 µM

SMILES: COc1cc(OC)cc(Oc2ncccc2-c2ccncn2)c1
MEC [1]: 0.75 µM

Activity [2]: Active
inhibition [3]: inactive
Activity [4]: Active
Activity [6]: Active
Activity [7]: Active
SMILES: CNC(=O)c1cc(OC)cc(Oc2ncccc2-c2ccnc(OC)c2)c1
MEC [1]: 0.03 µM

SMILES: Nc1cccc(Oc2ncccc2-c2ccnc(N)n2)c1
MEC [1]: 20 µM

SMILES: COc1cc(OC)cc(Oc2ncccc2-c2ccncc2)c1
MEC [1]: 0.14 µM

Activity [2]: Active
inhibition [3]: inactive
Activity [4]: Active
Activity [6]: Active
Activity [7]: Active
SMILES: COc1cc(NC(C)=O)cc(Oc2ncccc2-c2ccnc(C)c2)c1
MEC [1]: 0.07 µM

SMILES: COc1cc(Oc2ncccc2-c2ccncc2)cc(C(=O)N(C)C)c1
MEC [1]: 2.08 µM

SMILES: COc1cc(OC)cc(Oc2ncccc2-c2cccnc2)c1
MEC [1]: 0.91 µM

SMILES: COc1cc(OC)cc(Oc2ncccc2-c2cccc(N)n2)c1
MEC [1]: 0.96 µM

Activity [28]: Active
inhibition [29]: 100%
inhibition [30]: inactive
Activity [31]: Active
inhibition [32]: inactive
inhibition [33]: inactive
Activity [35]: Active
Activity [36]: Active
inhibition [37]: Active
inhibition [38]: inactive
SMILES: Cc1csc(-c2nnc(Nc3ccc(Oc4ncccc4-c4ccnc(N)n4)cc3)c3ccccc23)c1 [AMG-900]
Activity [34]: 7.8%

SMILES: COC(=O)c1cc(OC)cc(Oc2ncccc2-c2ccnc(N)n2)c1
MEC [1]: 0.03 µM
